Test results taken from PMC12420824, “Discovery of a selective alpha-kinase 1 inhibitor for the rare genetic disease ROSAH syndrome” (Nature Communications, 2025).

Experiments:
Settings in all cases: read-out: % Enzyme Activity (relative to DMSO control), 10 uM
[1] = molecular target: ARAF (Homo sapiens, UniProt P10398); assay: HotSpot kinase assay
[2] = molecular target: PHKg1 (Homo sapiens, UniProt Q16816); assay: HotSpot kinase assay
From the text: (§1) Additionally, a 10-dose dilution series of staurosporine and other enzyme-appropriate compounds were included as positive control inhibitors.

[3] = molecular target: DYRK4 (Homo sapiens, UniProt Q9NR20); assay: HotSpot kinase assay
[4] = molecular target: ALK5/TGFBR1 (Homo sapiens, UniProt P36897); assay: HotSpot kinase assay
From the text: as §1

[5] = molecular target: FMS (Homo sapiens, UniProt P07333); assay: HotSpot kinase assay
From the text: as §1

[6] = molecular target: SGK2 (Homo sapiens, UniProt Q9HBY8); assay: HotSpot kinase assay
From the text: as §1

[7] = molecular target: RON/MST1R (Homo sapiens, UniProt Q04912); assay: HotSpot kinase assay
From the text: as §1

[8] = molecular target: EGFR (Homo sapiens, UniProt P00533); assay: HotSpot kinase assay
From the text: as §1

[9] = molecular target: PKCIOTA (Homo sapiens, UniProt P41743); assay: HotSpot kinase assay
From the text: as §1

[10] = molecular target: ERK7/MAPK15 (Homo sapiens, UniProt Q8TD08); assay: HotSpot kinase assay
From the text: as §1

[11] = molecular target: FLT1/VEGFR1 (Homo sapiens, UniProt P17948); assay: HotSpot kinase assay
From the text: as §1

[12] = molecular target: MST1/STK4 (Homo sapiens, UniProt Q13043); assay: HotSpot kinase assay
[13] = molecular target: AURORA C (Homo sapiens, UniProt Q9UQB9); assay: HotSpot kinase assay
[14] = molecular target: STK16 (Homo sapiens, UniProt O75716); assay: biochemical
From the text: as §1

[15] = molecular target: TLK1 (Homo sapiens, UniProt Q9UKI8); assay: HotSpot kinase assay
From the text: as §1

[16] = molecular target: PKG2/PRKG2 (Homo sapiens, UniProt Q13237); assay: HotSpot kinase assay
From the text: as §1

[17] = molecular target: MYLK3 (Homo sapiens, UniProt Q32MK0); assay: HotSpot kinase assay
[18] = molecular target: STK38L/NDR2 (Homo sapiens, UniProt Q9Y2H1); assay: HotSpot kinase assay
From the text: as §1

[19] = molecular target: PDGFRb (Homo sapiens, UniProt P09619); assay: HotSpot kinase assay
[20] = molecular target: PKCb2 (Homo sapiens, UniProt P05771); assay: HotSpot kinase assay
From the text: as §1

[21] = molecular target: BRAF (Homo sapiens, UniProt P15056); assay: HotSpot kinase assay
[22] = molecular target: IKKb/IKBKB (Homo sapiens, UniProt O14920); assay: HotSpot kinase assay
[23] = molecular target: CAMK2b (Homo sapiens, UniProt Q13554); assay: HotSpot kinase assay
From the text: as §1

[24] = molecular target: NEK9 (Homo sapiens, UniProt Q8TD19); assay: HotSpot kinase assay
[25] = molecular target: MUSK (Homo sapiens, UniProt O15146); assay: HotSpot kinase assay
From the text: as §1

[26] = molecular target: ULK1 (Homo sapiens, UniProt O75385); assay: HotSpot kinase assay
From the text: as §1

[27] = molecular target: CLK1 (Homo sapiens, UniProt P49759); assay: HotSpot kinase assay
From the text: as §1

[28] = molecular target: STK32C/YANK3 (Homo sapiens, UniProt Q86UX6); assay: HotSpot kinase assay
[29] = molecular target: AMPK (A2/B1/G3) (Homo sapiens, UniProt P54646); assay: HotSpot kinase assay
From the text: as §1

[30] = molecular target: PHKg2 (Homo sapiens, UniProt P15735); assay: HotSpot kinase assay
From the text: as §1

[31] = molecular target: OSR1/OXSR1 (Homo sapiens, UniProt O95747); assay: HotSpot kinase assay
From the text: as §1

[32] = molecular target: GSK3b (Homo sapiens, UniProt P49841); assay: HotSpot kinase assay
From the text: as §1

[33] = molecular target: LOK/STK10 (Homo sapiens, UniProt O94804); assay: HotSpot kinase assay
From the text: as §1

[34] = molecular target: MYO3b (Homo sapiens, UniProt Q8WXR4); assay: HotSpot kinase assay
[35] = molecular target: FLT4/VEGFR3 (Homo sapiens, UniProt P35916); assay: HotSpot kinase assay
[36] = molecular target: CLK2 (Homo sapiens, UniProt P49760); assay: HotSpot kinase assay
From the text: as §1

[37] = molecular target: FER (Homo sapiens, UniProt P16591); assay: HotSpot kinase assay
Sequence of FER (P16591 whole entry): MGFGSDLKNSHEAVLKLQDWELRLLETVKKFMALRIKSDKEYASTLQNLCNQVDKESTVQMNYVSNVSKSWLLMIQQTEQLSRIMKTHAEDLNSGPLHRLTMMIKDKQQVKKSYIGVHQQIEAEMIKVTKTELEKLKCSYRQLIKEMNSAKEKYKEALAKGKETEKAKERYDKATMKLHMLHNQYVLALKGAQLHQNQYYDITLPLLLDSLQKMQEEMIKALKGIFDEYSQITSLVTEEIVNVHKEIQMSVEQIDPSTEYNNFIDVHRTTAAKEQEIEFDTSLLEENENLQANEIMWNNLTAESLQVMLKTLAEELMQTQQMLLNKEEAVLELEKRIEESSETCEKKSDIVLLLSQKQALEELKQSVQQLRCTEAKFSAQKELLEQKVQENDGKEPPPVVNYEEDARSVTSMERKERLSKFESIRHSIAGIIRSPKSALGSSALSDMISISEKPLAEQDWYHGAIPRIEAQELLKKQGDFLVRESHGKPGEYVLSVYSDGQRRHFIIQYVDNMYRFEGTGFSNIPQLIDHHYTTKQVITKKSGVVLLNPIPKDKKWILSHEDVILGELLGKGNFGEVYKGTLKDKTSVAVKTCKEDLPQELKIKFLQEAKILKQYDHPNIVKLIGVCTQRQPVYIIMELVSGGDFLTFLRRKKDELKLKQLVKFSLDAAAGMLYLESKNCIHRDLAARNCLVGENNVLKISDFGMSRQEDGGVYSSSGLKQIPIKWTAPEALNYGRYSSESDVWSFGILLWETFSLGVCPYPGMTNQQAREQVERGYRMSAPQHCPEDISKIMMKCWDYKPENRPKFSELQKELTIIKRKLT

Sequence of STK16 (O75716 whole entry): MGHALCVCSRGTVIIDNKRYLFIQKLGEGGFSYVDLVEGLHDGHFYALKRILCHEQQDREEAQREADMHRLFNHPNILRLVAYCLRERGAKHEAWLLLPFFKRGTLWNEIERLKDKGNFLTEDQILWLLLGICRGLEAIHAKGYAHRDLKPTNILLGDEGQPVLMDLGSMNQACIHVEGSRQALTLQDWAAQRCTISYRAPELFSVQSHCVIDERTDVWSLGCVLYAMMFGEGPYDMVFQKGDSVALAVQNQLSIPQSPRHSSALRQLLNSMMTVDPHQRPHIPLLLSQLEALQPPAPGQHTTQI
Sequence of DYRK4 (Q9NR20 whole entry): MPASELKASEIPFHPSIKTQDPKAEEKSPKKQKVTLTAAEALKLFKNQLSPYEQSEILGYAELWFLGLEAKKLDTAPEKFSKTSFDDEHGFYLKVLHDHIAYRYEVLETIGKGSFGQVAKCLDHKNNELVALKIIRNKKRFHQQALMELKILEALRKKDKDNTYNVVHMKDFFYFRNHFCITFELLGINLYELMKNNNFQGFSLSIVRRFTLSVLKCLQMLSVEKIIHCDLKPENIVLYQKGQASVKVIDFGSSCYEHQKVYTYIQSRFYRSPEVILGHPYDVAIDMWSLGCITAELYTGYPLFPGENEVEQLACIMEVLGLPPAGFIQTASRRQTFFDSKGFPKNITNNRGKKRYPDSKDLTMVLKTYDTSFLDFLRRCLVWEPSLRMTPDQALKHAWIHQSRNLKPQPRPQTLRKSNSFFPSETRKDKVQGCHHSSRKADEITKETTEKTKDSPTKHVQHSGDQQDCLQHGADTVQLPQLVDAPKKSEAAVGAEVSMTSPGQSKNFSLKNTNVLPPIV
Sequence of MYO3b (Q8WXR4 whole entry): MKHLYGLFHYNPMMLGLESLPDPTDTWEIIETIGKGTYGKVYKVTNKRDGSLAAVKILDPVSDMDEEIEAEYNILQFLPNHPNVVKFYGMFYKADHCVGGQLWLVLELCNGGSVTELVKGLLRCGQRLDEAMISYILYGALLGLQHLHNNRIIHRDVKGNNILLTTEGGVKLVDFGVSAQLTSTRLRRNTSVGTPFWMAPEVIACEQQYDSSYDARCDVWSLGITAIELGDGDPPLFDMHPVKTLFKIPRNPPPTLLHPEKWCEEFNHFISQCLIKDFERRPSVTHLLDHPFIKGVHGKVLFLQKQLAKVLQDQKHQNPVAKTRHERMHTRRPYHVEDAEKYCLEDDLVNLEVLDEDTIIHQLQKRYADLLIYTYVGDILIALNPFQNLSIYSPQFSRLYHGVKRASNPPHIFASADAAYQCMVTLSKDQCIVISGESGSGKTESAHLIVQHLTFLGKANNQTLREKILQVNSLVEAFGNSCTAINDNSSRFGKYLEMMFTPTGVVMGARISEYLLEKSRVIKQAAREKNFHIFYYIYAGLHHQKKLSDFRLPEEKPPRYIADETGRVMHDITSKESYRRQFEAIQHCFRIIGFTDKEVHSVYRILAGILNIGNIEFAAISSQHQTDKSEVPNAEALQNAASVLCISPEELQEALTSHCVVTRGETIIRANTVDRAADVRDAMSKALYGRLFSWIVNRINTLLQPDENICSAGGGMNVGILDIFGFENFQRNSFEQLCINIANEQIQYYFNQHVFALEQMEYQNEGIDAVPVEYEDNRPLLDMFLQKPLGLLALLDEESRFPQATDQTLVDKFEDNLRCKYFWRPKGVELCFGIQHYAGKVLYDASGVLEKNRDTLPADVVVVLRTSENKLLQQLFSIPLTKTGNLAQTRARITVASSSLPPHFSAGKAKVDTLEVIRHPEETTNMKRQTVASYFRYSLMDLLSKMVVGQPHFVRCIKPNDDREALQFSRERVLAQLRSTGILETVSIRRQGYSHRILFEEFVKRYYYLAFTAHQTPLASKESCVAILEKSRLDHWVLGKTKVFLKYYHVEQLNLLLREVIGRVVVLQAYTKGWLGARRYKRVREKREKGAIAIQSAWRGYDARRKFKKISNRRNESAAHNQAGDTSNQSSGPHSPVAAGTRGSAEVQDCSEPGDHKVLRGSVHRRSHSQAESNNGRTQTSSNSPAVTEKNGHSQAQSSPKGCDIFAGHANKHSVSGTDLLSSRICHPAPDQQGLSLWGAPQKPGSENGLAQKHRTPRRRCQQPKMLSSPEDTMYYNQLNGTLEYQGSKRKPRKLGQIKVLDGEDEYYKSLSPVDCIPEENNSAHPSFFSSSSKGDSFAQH
Sequence of AURORA C (Q9UQB9 whole entry): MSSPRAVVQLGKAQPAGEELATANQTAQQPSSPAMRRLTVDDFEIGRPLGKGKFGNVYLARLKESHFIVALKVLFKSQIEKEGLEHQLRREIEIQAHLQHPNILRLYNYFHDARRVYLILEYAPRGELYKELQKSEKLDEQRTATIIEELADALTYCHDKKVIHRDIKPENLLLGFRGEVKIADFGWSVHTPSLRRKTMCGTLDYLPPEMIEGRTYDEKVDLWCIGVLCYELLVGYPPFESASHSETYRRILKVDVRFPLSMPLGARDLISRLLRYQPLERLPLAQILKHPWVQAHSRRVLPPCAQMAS
Sequence of ERK7/MAPK15 (Q8TD08 whole entry): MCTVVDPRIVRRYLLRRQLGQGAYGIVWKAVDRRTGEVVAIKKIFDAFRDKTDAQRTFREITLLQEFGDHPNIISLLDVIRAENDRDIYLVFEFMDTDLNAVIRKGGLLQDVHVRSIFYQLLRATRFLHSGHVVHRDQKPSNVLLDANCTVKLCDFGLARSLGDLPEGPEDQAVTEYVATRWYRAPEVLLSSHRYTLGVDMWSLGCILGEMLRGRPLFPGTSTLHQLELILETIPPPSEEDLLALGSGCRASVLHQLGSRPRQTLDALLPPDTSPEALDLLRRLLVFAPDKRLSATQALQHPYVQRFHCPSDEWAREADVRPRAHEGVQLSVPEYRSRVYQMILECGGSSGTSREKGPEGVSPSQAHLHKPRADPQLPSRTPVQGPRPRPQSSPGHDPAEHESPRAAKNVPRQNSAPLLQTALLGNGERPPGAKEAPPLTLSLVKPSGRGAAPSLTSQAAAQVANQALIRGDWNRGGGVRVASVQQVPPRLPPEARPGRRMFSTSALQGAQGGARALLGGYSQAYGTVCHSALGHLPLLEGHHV
Sequence of IKKb/IKBKB (O14920 whole entry): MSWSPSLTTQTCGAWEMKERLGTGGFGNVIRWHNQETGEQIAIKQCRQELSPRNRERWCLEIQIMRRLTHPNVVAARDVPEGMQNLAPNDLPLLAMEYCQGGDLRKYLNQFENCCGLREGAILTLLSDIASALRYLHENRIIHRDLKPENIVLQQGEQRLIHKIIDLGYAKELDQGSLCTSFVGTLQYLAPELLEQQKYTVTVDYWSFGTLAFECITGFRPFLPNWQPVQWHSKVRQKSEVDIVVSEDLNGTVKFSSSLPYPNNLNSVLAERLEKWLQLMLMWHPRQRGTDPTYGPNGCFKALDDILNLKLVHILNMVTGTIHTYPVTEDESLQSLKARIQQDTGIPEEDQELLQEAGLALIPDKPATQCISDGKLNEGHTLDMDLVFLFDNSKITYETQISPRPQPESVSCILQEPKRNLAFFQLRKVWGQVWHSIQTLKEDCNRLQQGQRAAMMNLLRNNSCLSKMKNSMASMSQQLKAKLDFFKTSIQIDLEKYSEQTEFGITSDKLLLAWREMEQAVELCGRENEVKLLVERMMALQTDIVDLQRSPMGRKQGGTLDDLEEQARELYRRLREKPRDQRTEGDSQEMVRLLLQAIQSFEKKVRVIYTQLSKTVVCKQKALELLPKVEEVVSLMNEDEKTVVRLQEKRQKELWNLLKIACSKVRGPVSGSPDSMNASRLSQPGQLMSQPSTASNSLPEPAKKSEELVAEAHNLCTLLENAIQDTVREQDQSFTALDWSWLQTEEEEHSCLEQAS
Sequence of PHKg1 (Q16816 whole entry): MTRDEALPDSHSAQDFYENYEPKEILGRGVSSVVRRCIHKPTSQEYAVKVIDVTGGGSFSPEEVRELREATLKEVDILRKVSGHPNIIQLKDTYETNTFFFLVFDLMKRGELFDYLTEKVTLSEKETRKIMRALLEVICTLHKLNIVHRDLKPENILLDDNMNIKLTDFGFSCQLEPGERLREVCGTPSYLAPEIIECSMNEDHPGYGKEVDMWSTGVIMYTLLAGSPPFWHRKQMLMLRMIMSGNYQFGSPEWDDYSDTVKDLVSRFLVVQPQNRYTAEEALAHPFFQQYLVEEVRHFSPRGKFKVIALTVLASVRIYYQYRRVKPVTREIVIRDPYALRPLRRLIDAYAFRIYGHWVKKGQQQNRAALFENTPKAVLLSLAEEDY

For `C#C[C@@](C)(c1ccc(Cl)cc1)c1csc(NC(=O)c2c(F)cc(N3CCNCC3)cc2F)n1` (stereo in doubt) [DF-003], which remaining activity at 10 µM [1] is on record?
Its remaining activity at 10 µM is 92.8%.

And the remaining activity at 10 µM [2]?
The remaining activity at 10 µM was 92.1%.

And the remaining activity at 10 µM [3]?
Its remaining activity at 10 µM is 104%.

What about the remaining activity at 10 µM [4] of the same compound?
Its remaining activity at 10 µM is 103%.

And the remaining activity at 10 µM [5]?
The remaining activity at 10 µM was 75.7%.

And the remaining activity at 10 µM [6]?
Its remaining activity at 10 µM is 77.6%.

What about the remaining activity at 10 µM [7] of the same compound?
Its remaining activity at 10 µM is 61.5%.

What about the remaining activity at 10 µM [8] of the same compound?
The remaining activity at 10 µM was 93.7%.

And the remaining activity at 10 µM [9]?
Its remaining activity at 10 µM is 77.5%.

What about the remaining activity at 10 µM [10] of the same compound?
The remaining activity at 10 µM was 83.5%.

What about the remaining activity at 10 µM [11] of the same compound?
Its remaining activity at 10 µM is 79.2%.

And the remaining activity at 10 µM [12]?
The remaining activity at 10 µM was 97.1%.

What about the remaining activity at 10 µM [13] of the same compound?
Its remaining activity at 10 µM is 91.7%.

And the remaining activity at 10 µM [14]?
The remaining activity at 10 µM was 109%.

And the remaining activity at 10 µM [15]?
The remaining activity at 10 µM was 96.5%.

What about the remaining activity at 10 µM [16] of the same compound?
The remaining activity at 10 µM was 105%.

What about the remaining activity at 10 µM [17] of the same compound?
The remaining activity at 10 µM was 87.3%.

And the remaining activity at 10 µM [18]?
Its remaining activity at 10 µM is 90.6%.

What about the remaining activity at 10 µM [19] of the same compound?
Its remaining activity at 10 µM is 80.2%.

And the remaining activity at 10 µM [20]?
Its remaining activity at 10 µM is 85.2%.

And the remaining activity at 10 µM [21]?
The remaining activity at 10 µM was 84.1%.

And the remaining activity at 10 µM [22]?
The remaining activity at 10 µM was 152%.

What about the remaining activity at 10 µM [23] of the same compound?
Its remaining activity at 10 µM is 30.3%.

What about the remaining activity at 10 µM [24] of the same compound?
Its remaining activity at 10 µM is 100%.

And the remaining activity at 10 µM [25]?
The remaining activity at 10 µM was 105%.

And the remaining activity at 10 µM [26]?
The remaining activity at 10 µM was 56.8%.

What about the remaining activity at 10 µM [27] of the same compound?
The remaining activity at 10 µM was 91.2%.

What about the remaining activity at 10 µM [28] of the same compound?
The remaining activity at 10 µM was 114%.

What about the remaining activity at 10 µM [29] of the same compound?
Its remaining activity at 10 µM is 87.3%.

And the remaining activity at 10 µM [30]?
Its remaining activity at 10 µM is 74.2%.

And the remaining activity at 10 µM [31]?
Its remaining activity at 10 µM is 48.8%.

And the remaining activity at 10 µM [32]?
Its remaining activity at 10 µM is 93.3%.

What about the remaining activity at 10 µM [33] of the same compound?
The remaining activity at 10 µM was 62.4%.

And the remaining activity at 10 µM [34]?
The remaining activity at 10 µM was 94.4%.

And the remaining activity at 10 µM [35]?
The remaining activity at 10 µM was 98.2%.

And the remaining activity at 10 µM [36]?
Its remaining activity at 10 µM is 90.6%.

And the remaining activity at 10 µM [37]?
The remaining activity at 10 µM was 113%.
